Experimental data as given in patent US12714106B2 (Bayer Aktiengesellschaft, priority 2020, dated 2026).

Tests used:
Type in all cases: in vivo
[1] = system: EMEAU (Emex australis); assay: Post-emergence greenhouse herbicide test, visual rating; settings: 50 g/ha; post-emergence; 21 days after application
Description: (§1) Seeds of grass and broadleaf weeds were sown in pots (diameter: 7 cm) filled with a sandy loam soil. Following germination the plants were grown under optimal conditions up to a growth stage of BBCH 11 to 14 depending on species.
(§2) The applications were performed by post emergence treatments on the planted pots using a spray volume of 300 L water per hectare. The herbicides were applied alone and in combination as described.
(§3) The trial was conducted in the greenhouse ensuring optimal growing conditions.
(§4) The herbicidal effects were assessed 21 days following application by visual ratings comparing treated and untreated plants (0%=no effect to 100%=complete die-off).
(§5) The compounds of the formula (Ia), (Ib) and (I) were formulated as WP (wettable powder) formulation.
(§6) • BBCH=the BBCH code provides information about the morphological development stage of a plant. Officially, the abbreviation denotes the Biologische Bundesanstalt, Bundessortenamt and Chemische Industrie [Federal Biological Institute for Agriculture and Forestry, Federal Office for Crop Plant Varieties and Chemical Industry]. The range of BBCH 00-10 denotes the germination stages of the seeds until surface penetration. The range of BBCH 11-25 denotes the leaf development stages until stocking (corresponding to the number of tillers or side-shoots). In the Trials, the Following Biotypes of Broad-Leaved Weeds and Weed Grasses were Used: • ALOMY—sensitive (Alopecurus myosuroides) sensitive to customary herbicidally active compounds. • ALOMY_R (resistant) (Alopecurus myosuroides) resistant to herbicidally active compounds of the HRAC groups A and B; population mixture of field origin having increased metabolic resistance (IMR) and some target site resistance (TSR). • LOLRI—sensitive (Lolium rigidum) sensitive to customary herbicidally active compounds. • LOLRI_R (resistant) (Lolium rigidum) resistant to herbicidally active compounds of the HRAC groups A and B; population mixture of field origin having increased metabolic resistance (IMR) and some target site resistance (TSR). • AMAPA_R (resistant) (Amaranthus palmeri) resistant to herbicidally active compounds of the HRAC groups A and B; population mixture of field origin having increased metabolic resistance (IMR) and some target site resistance (TSR). • CHRVI (Chloris virgate) feather finger grass • KCHSC (Kochia scoparia) Mexican burning bush • MATIN (Matricaria inodora) false chamomile • POLCO (Polygonum convolvulus) black knotweed • ABUTH (Abutilon theophrasti) china jute • AMAPA (Amaranthus palmeri) palmer amaranth • BIDPI (Bidens pilosa) common blackjack • CHEAL (Chenopodium album) common lambsquarters • EPHHL (Euphorbia heterophylla) wild spurge • XANST (Xanthium strumarium) large cocklebur • EMEAU (Emex australis)—Cathead • GALAP (Gallium aparine)—Cleaver
(§7) The synergistic herbicidal activity was calculated using Colby's formula (cf. S. R. Colby; Weeds 15 (1967), 20-22): […]

[2] = system: AMAPA-R (resistant) (Amaranthus palmeri); assay: as above; settings: 25 g/ha single isomer; post-emergence; 21 days after application
Description: as §1, §2, §3, §4, §5, §6, §7

[3] = system: BID PI (Bidens pilosa); assay: as above; settings: 25 g/ha single isomer; post-emergence; 21 days after application
Description: as §1, §2, §3, §4, §5, §6, §7

[4] = system: POLCO (Polygonum convolvulus); assay: as above; settings: 12.5 g/ha; post-emergence; 21 days after application
Description: as §1, §2, §3, §4, §5, §6, §7

[5] = system: GALAP (Gallium aparine); assay: as above; settings: 50 g/ha; post-emergence; 21 days after application
Description: as §1, §2, §3, §4, §5, §6, §7

[6] = system: CHEAL (Chenopodium album); assay: as above; settings: post-emergence, 21 days after application
Description: as §1, §2, §3, §4, §5, §6, §7

[7] = system: XANST (Xanthium strumarium); assay: as above; settings: post-emergence, 21 days after application
Description: as §1, §2, §3, §4, §5, §6, §7

[8] = system: ABUTH (Abutilon theophrasti); assay: as above; settings: post-emergence, 21 days after application
Description: as §1, §2, §3, §4, §5, §6, §7

[9] = system: KCHSC (Kochia scoparia); assay: as above; settings: 12.5 g/ha; post-emergence; 21 days after application
Description: as §1, §2, §3, §4, §5, §6, §7

[10] = system: LOLRI_R (resistant) (Lolium rigidum); assay: as above; settings: post-emergence, 21 days after application
Description: as §1, §2, §3, §4, §5, §6, §7

[11] = system: EPHHL (Euphorbia heterophylla); assay: as above; settings: post-emergence, 21 days after application
Description: as §1, §2, §3, §4, §5, §6, §7

[12] = system: CHRVI (Chloris virgate); assay: as above; settings: 12.5 g/ha; post-emergence; 21 days after application
Description: as §1, §2, §3, §4, §5, §6, §7

[13] = system: LOLRI - sensitive (Lolium rigidum); assay: as above; settings: post-emergence, 21 days after application
Description: as §1, §2, §3, §4, §5, §6, §7

[14] = system: MATIN (Matricaria inodora); assay: as above; settings: post-emergence, 21 days after application
Description: as §1, §2, §3, §4, §5, §6, §7

[15] = system: grass and broadleaf weeds; assay: Comparative testing of crystalline (I), (Ia), (Ib), summary of tables 3 to 6; settings: (I) vs (Ia); (Ia) vs (Ib); see tables 3 to 6
Description: as §1, §2, §3, §4, §5, §7

C=C[C@]1(C(=O)N[C@H]2CO[C@@H](C(=O)OC)C2)CC(c2cc(F)cc(F)c2)=NO1 [(Ia), methyl(2R,4R)-4-[[(5S)-3-(3,5-difluorophenyl)-5-vinyl-4H-isoxazole-5-carbonyl]amino]-tetrahydrofuran-2-carboxylate]
EMEAU Observed [1]: 80% | AMAPA-R Observed [2]: 35% | BID PI Observed [3]: 30% | POLCO Observed [4]: 85% | GALAP Observed [5]: 75% | CHEAL Observed ([6]; 25 g/ha single isomer): 70% | XANST Observed ([7]; 25 g/ha single isomer): 0% | XANST Observed ([7]; 50 g/ha single isomer): 20% | XANST Observed ([7]; 100 g/ha single isomer): 20% | ABUTH Observed ([8]; 25 g/ha single isomer): 45% | ABUTH Observed ([8]; 50 g/ha single isomer): 60% | KCHSC Observed [9]: 70% | LOLRI_R Observed ([10]; 6.25 g/ha): 15% | LOLRI_R Observed ([10]; 12.5 g/ha): 20% | LOLRI_R Observed ([10]; 25 g/ha): 30% | EPHHL Observed ([11]; 25 g/ha single isomer): 30% | EPHHL Observed ([11]; 50 g/ha single isomer): 35% | CHRVI Observed [12]: 35% | LOLRI Observed ([13]; 6.25 g/ha): 20% | LOLRI Observed ([13]; 12.5 g/ha): 90% | MATIN Observed ([14]; 12.5 g/ha): 0% | MATIN Observed ([14]; 25 g/ha): 0% | MATIN Observed ([14]; 50 g/ha): 0% | herbicidal activity compared with the other crystalline forms [15]: superior in activity

C=C[C@]1(C(=O)N[C@@H]2CO[C@H](C(=O)OC)C2)CC(c2cc(F)cc(F)c2)=NO1 [(Ib), methyl(2S,4S)-4-[[(5S)-3-(3,5-difluorophenyl)-5-vinyl-4H-isoxazole-5-carbonyl]amino]-tetrahydrofuran-2-carboxylate]
EMEAU Observed [1]: 45% | AMAPA-R Observed [2]: 25% | BID PI Observed [3]: 10% | POLCO Observed [4]: 40% | GALAP Observed [5]: 35% | CHEAL Observed ([6]; 25 g/ha single isomer): 20% | CHEAL Observed ([6]; 50 g/ha single isomer): 60% | XANST Observed ([7]; 25 g/ha single isomer): 0% | XANST Observed ([7]; 50 g/ha single isomer): 10% | XANST Observed ([7]; 100 g/ha single isomer): 20% | ABUTH Observed ([8]; 25 g/ha single isomer): 10% | ABUTH Observed ([8]; 50 g/ha single isomer): 20% | KCHSC Observed [9]: 40% | LOLRI_R Observed ([10]; 6.25 g/ha): 0% | LOLRI_R Observed ([10]; 12.5 g/ha): 0% | LOLRI_R Observed ([10]; 25 g/ha): 0% | EPHHL Observed ([11]; 25 g/ha single isomer): 35% | EPHHL Observed ([11]; 50 g/ha single isomer): 35% | CHRVI Observed [12]: 20% | LOLRI Observed ([13]; 6.25 g/ha): 0% | LOLRI Observed ([13]; 12.5 g/ha): 0% | MATIN Observed ([14]; 12.5 g/ha): 0% | MATIN Observed ([14]; 25 g/ha): 0% | MATIN Observed ([14]; 50 g/ha): 0%
